*1 amine or outer side, *2 acyl side, *3 side chain or, on linkers, in order; H or OH if unused. Where a SMILES comes first, the peptide text is derived from it. Side-chain parts run from the residue outwards. [ ]: non-standard residue; d: D form. The star is where a group is joined. C20 diacid = O=C(O)CCCCCCCCCCCCCCCCCCC(=O)*; γGlu = O=C(O)[C@H](CCC(=O)[*:2])N[*:1]; εLys = N[C@@H](CCCCN[*:1])C(=O)[*:2]; pGlu = O=C1CC[C@@H](C(=O)O)N1; αMeL = CC(C)C[C@](C)(N)C(=O)O; AEEA = NCCOCCOCC(=O)O; Aib = CC(C)(N)C(=O)O
Experiments:
[1] = target: T1, human CRHR2 (Homo sapiens, UniProt Q13324); experiment: Human CRHR2 cAMP assay (HTRF) in HEK293 cells stably expressing human CRHR2; format: cell-based; conditions: HEK293 cells overexpressing human CRHR2; relative EC50, maximum 10 nM human UCN2; mean ± SE; read-out: hCRHR2 cAMP EC50 (pM, ± SE)
T1 construct: expressed in transfected cells
T1 sequence (Q13324 1-438 isoform Q13324-2): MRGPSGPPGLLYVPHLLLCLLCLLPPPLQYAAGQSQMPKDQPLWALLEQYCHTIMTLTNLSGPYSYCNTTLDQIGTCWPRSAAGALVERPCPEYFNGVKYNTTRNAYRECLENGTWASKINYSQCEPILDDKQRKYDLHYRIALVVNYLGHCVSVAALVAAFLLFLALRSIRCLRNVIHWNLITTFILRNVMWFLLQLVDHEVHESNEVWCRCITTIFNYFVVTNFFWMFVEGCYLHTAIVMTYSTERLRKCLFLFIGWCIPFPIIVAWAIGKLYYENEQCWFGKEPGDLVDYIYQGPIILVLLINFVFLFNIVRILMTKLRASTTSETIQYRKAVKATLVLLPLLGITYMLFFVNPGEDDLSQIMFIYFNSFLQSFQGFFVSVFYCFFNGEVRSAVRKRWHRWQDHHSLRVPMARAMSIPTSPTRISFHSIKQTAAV
Outline: (§1)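 Stably expressing HEK293 clones received peptide concentration series in phosphodiesterase-inhibited buffer (0.25 mM IBMX, pH 7.4). After receptor-specific incubation (CRHR1 1 h at 37° C; CRHR2 30 min at room temperature), cells were lysed with HTRF cAMP reagents for 60 min and the 665/620 nm ratio recorded.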

[2] = target: T2, human CRHR1 (Homo sapiens, UniProt P34998); experiment: Human CRHR1 cAMP assay (HTRF) in HEK293 cells stably expressing human CRHR1; format: cell-based; conditions: HEK293 cells overexpressing human CRHR1; relative EC50, maximum 66 nM human UCN1; mean ± SE; read-out: hCRHR1 cAMP EC50 (pM, ± SE)
T2 construct: expressed in transfected cells
T2 sequence (P34998 24-415): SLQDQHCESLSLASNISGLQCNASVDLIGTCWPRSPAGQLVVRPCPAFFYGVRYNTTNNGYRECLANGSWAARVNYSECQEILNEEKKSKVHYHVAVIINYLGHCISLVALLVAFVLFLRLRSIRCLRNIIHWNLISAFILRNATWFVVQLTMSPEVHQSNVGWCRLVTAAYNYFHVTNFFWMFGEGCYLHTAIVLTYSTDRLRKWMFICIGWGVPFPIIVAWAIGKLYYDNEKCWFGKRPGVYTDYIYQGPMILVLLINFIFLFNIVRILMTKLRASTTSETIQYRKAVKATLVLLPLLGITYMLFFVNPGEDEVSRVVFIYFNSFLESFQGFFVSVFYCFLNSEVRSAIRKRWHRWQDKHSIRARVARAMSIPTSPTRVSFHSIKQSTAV
Outline: as §1

Work on `CC[C@H](C)[C@H](NC(C)=O)C(=O)N[C@H](C(=O)N[C@H](C(=O)N[C@@H](CO)C(=O)N[C@@](C)(CC(C)C)C(=O)N[C@@H](CC(=O)O)C(=O)N[C@@H](C(=O)N1CCC[C@H]1C(=O)N[C@H](C(=O)NC(C)(C)C(=O)N[C@@](C)(CC(C)C)C(=O)N[C@@H](CC(C)C)C(=O)N[C@@H](CCC(N)=O)C(=O)N[C@H](C(=O)N[C@@H](CCCCN)C(=O)N[C@@H](CC(C)C)C(=O)N[C@@H](CCC(=O)O)C(=O)N[C@@H](CCC(N)=O)C(=O)N[C@@H](CCC(=O)O)C(=O)N[C@@H](CCCNC(=N)N)C(=O)N[C@@H](C)C(=O)N[C@@H](CCC(=O)O)C(=O)N[C@@H](CCCCN)C(=O)N[C@@H](C)C(=O)N[C@@H](CCCNC(=N)N)C(=O)N[C@@H](CCC(N)=O)C(=O)N[C@@H](CCC(N)=O)C(=O)N[C@@H](C)C(=O)N[C@@H](CCCCNC(=O)COCCOCCNC(=O)COCCOCCNC(=O)CC[C@H](NC(=O)CCCCCCCCCCCCCCCCCCC(=O)O)C(=O)O)C(=O)N[C@@H](CCC(=O)O)C(=O)N[C@@H](CC(N)=O)C(=O)N[C@H](C(=O)N[C@@H](CCC(=O)O)C(=O)N[C@H](C(=O)N[C@@H](CC(C)C)C(=O)N[C@@H](C)C(=O)N[C@@H](CCC(N)=O)C(=O)N[C@H](C(N)=O)C(C)C)[C@@H](C)CC)[C@@H](C)O)[C@@H](C)CC)[C@@H](C)O)C(C)C)[C@@H](C)O)C(C)C` [SEQ ID NO: 41, Ac-IVTS αMeL D (D-Val) PT Aib αMeL LQIKLEQERAEKARQQAK((2-[2-(2-Amino-ethoxy)-ethoxy]-acetyl)2-γE-CO-(CH2)18-CO2H)ENTEILAQV-NH2] (Ac-IVTS[αMeL]D[dV]PT[Aib][αMeL]LQIKLEQERAEKARQQAK([AEEA-AEEA-γGlu-C20 diacid])ENTEILAQV-NH2) yielded an EC50 [1] of 7 ± 0.9 pM and an EC50 [2] of 3.7e+06 pM.

For “Ac-GSPSIVTS[αMeL]DVPT[Aib][αMeL]LQKLLEQERAEKARQQAK([γGlu-AEEA-εLys-C20 diacid])EAAEILAQV-NH2 [SEQ ID NO: 2, Ac-GSPSIVTS αMeL DVPT Aib αMeL LQKLLEQERAEKARQQAK(γE-(2-[2-(2-Amino-ethoxy)-ethoxy]-acetyl)-ϵK-CO-(CH2)18-CO2H)EAAEILAQV-NH2]”, the EC50 [1] was 12.3 ± 1.8 pM and the EC50 [2] was > 1e+07 pM.

“Ac-GSPSIVTS[αMeL]DVPT[Aib][αMeL]LQKILEQERAEKARQQAK([γGlu-AEEA-εLys-C20 diacid])EAAEILAQV-NH2 [SEQ ID NO: 1, Ac-GSPSIVTS αMeL DVPT Aib αMeL LQKILEQERAEKARQQAK(γE-(2-[2-(2-Amino-ethoxy)-ethoxy]-acetyl)-ϵK-CO-(CH2)18-CO2H)EAAEILAQV-NH2]” was tested, and the EC50 [1] was 9.3 ± 1.1 pM and the EC50 [2] was > 1e+07 pM.

“[pGlu]GSPSGIVTS[αMeL]DVPT[Aib][αMeL]LQKILEQERAEKARQQAK([γGlu-AEEA-εLys-C20 diacid])EAAEILAQV-NH2 [SEQ ID NO: 22, Pyr-GSPSGIVTS αMeL DVPT Aib αMeL LQKILEQERAEKARQQAK(γE-(2-[2-(2-Amino-ethoxy)-ethoxy]-acetyl)-ϵK-CO-(CH2)18-CO2H)EAAEILAQV-NH2]” was tested, and the EC50 [1] was 11.3 ± 3 pM and the EC50 [2] was > 1e+07 pM.

Reference: patent US20250163119A1, “COMPOUNDS FOR THE TREATMENT OF DIABETES OR OBESITY” (Eli Lilly and Company, priority 2023, published 2025)
